The source of these data is patent US10221255B2, “Composition for the immediate stopping of a free-radical polymerization” (BASF SE, priority 2015, dated 2019).

The nature of data set [1]: Heating test in acrylic acid: inhibition period at 120° C. under air. As to conditions: PTZ 20 ppm in acrylic acid, average of three.
Description: In this example, heating tests in acrylic acid (AA) were carried out. In this test, a sample of acrylic acid is maintained at 120° C. under an air atmosphere and the time until occurrence of turbidity in the solution is determined. The time is considered to be the inhibition period (IP) of the acrylic acid sample.
A part 1 was taken from the pure acrylic acid distillate RD and a stock solution 1 comprising 1000 ppm by weight of phenothiazine (PTZ) was produced with stirring.
40 parts by weight of stock solution 1 were mixed with 960 parts by weight of the pure acrylic acid distillate RD so as to give the stock solution 3. Part of this stock solution 3 was divided into identical samples having volumes of 1 ml.
Samples taken from the stock solutions 2 were combined with the various 1 ml samples obtained from the stock solutions 3 in such a way that the desired compositions of acrylic acid, phenothiazine (PTZ), ionic liquids IL, solvents LM or mixtures IL/LM of ionic liquids IL with solvents LM were obtained by doping. The doped samples produced in this way were provided for further examination on the same day. For repeat measurements, fresh doped samples were produced in order to minimize the influence of the acrylic acid oligomers obtained by Michael oligomerization.
To examine the polymerization tendency of the respective doped sample, three HPLC vials (transparent vessels having a fill volume of 1.5 ml) were in each case charged with 0.5 ml of the respective sample under air and subsequently tightly closed by means of a crimped cap. Immediately after production, in each case up to 92 vials charged as described were hung in a holder made for this purpose and kept at a temperature of 120° C. in a convection drying oven while the holder rotated at six revolutions per minute in order to ensure complete mixing in the vials (the liquid content of the respective vial came into contact with the crimped cap six times per minute). The time T to complete polymerization of the respective sample in the associated vial was then measured. For this purpose, the samples in the vials in the drying oven were monitored by means of a digital video camera and the video film was subsequently evaluated visually.
Three associated values of T were determined in this way for each doped sample and these were arithmetically averaged.
When mixtures of ionic liquid and solvent were used as additive, the weight ratio of ionic liquid to solvent or to the solvent mixture (IL/LM) was 20/80.
For data set [2] the following is noted: Hansen solubility parameter, room temperature, about 23° C., cited from earlier work; for δD: LONDON dispersion forces; for δP: dipole interaction forces; for δH: specific interaction forces (hydrogen bonds etc.).
For data set [3] the following is noted: relative static permittivity, liquid pure substance; cited from earlier work.
A short description of data set [4]: Hansen solubility parameters and solubility distance Ra of solvents. The settings on record: solubility distance calculated from formula 1. Further details: key: solubility distance Ra in MPa^1/2. The class given is physicochemical. The source says: The value will hereinafter also be referred to as solubility distance Ra. The definition and calculation of the solubility parameters in the three-dimensional Hansen solubility space are described in: C. M. Hansen: “The three dimensional solubility parameters” J. Paint Technol. […] In this Hansen space, δD denotes the LONDON dispersion forces, δP denotes the Debye interaction forces between permanent dipoles and also the Keesom interaction forces between induced and permanent dipoles and δH denotes the specific interaction forces (hydrogen bonds, acid/base, donor/acceptor, etc.). The unit of the parts of the parameters is in each case [MPa^1/2].
The Hansen solubility parameters for many solvents are tabulated in standard works such as Hansen Solubility Parameters: A User's Handbook, C. […] It is also possible to use known modeling software, for example HSPIP 3.1.14 (3rd Edition), developed and marketed by C. M. Hansen, in order to calculate the Hansen solubility parameters on the basis of the chemical structure of the solvent.

The nature of data set [5]: Phase diagram of the system phenothiazine/proglyme/EMIM acetate. The class given is physicochemical. The settings on record: room temperature, FIG. 5. As for the experimental part: The phase diagram (triangular diagram) of the system phenothiazine/proglyme/EMIM acetate was determined at room temperature. In the triangular diagram, the corners correspond to the pure materials. The sides of the triangle correspond to two-component mixtures. The proportions of phenothiazine/proglyme/EMIM acetate at any point P are given by the intersections of the parallels to the side through P with the other sides. The phase behavior (single-phase, two phases liquid/liquid, two phases solid/liquid, three-phase) at selected points is indicated by symbols.

Data set [6] in a line: Phase diagram of the system phenothiazine/proglyme/EMIM ethylsulfate. The class given is physicochemical. The settings on record: room temperature, FIG. 6. As for the experimental part: The phase diagram (triangular diagram) of the system phenothiazine/proglyme/EMIM ethylsulfate was determined at room temperature. In the triangular diagram, the corners correspond to the pure materials. The sides of the triangle correspond to two-component mixtures. The proportions of phenothiazine/proglyme/EMIM ethylsulfate at any point P are given by the intersections of the parallels to the sides through P with the other sides. The phase behavior (single-phase, two phases liquid/liquid, two phases solid/liquid, three-phase) at selected points is indicated by symbols.

The nature of data set [7]: Solubility of phenothiazine in ionic liquid/solvent mixtures relative to pure solvent. As to conditions: 20% by weight ionic liquid, 80% by weight solvent; room temperature; FIGS. 1 to 4. As for the experimental part: In the same way, the solubility of phenothiazine in the pure solvent was determined.

The compound `CCC(=O)O` [Propionic acid] displayed an Inhibiting period in data set [1] (additive 1000 ppm) of 337 min.

Regarding `OCc1ccccc1` [Benzyl alcohol], the Inhibiting period in data set [1] (additive 1000 ppm) stood at 355 min.

Regarding `Cn1ccnc1` [N-Methylimidazole], in data set [2], the δD is on record as 19.7 MPa^1/2, the δP is 15.6 MPa^1/2 and the δH is recorded as 11.2 MPa^1/2. In data set [1] (additive 1000 ppm), this compound gave an Inhibiting period of 366 min. Further, the “εr at 20° C.” value in data set [3] was 32.0. Besides, the Ra in data set [4] is 8.8.

As for `CCCCCCCCO` [Agnique FOH 898, n-octanol], the Inhibiting period in data set [1] (additive 1000 ppm) turned out to be 332 min.

Take “tetrabutylammonium [2-(2-methoxyethoxy)ethoxy]acetate [TBA ether carboxylate]”: the Inhibiting period in data set [1] (additive 22 ppm) is listed as 378 min.

With “N-ethyl-N′-methylimidazolium ethylsulfate [EMIM ethylsulfate]”, the Inhibiting period in data set [1] (additive 29 ppm) came out at 386 min.

`COc1ccc(C(OC)OC)cc1` [Anisacetal, p-(dimethoxymethyl)anisole]: in data set [1] (additive 1000 ppm), the Inhibiting period is on record as 320 min.

Turning to `COC(=O)CCC(=O)OC` [Dimethyl succinate], in data set [2], the δD is 16.1 MPa^1/2, the δP is 7.7 MPa^1/2 and the δH was 8.8 MPa^1/2. For the same compound, in data set [1] (additive 1000 ppm), the Inhibiting period is given as 348 min. Also, in data set [3], the “εr at 20° C.” value was 7.3. Moreover, the Ra in data set [4] is reported as 4.7.

Take `C1COCCN1` [Morpholine]: in data set [2], the δD is recorded as 18.0 MPa^1/2, the δP is 4.9 MPa^1/2 and the δH is reported as 11.0 MPa^1/2. The same compound gave an Inhibiting period in data set [1] (additive 1000 ppm) of 410 min. In data set [3], the “εr at 20° C.” value is recorded as 7.8. For the same compound, the Ra in data set [4] is given as 8.1.

In turn, `CN1CCN(C)C1=O` [Dimethylethyleneurea] had an Inhibiting period in data set [1] (additive 1000 ppm) of 313 min.

With `CC(O)C(=O)N(C)C` (centres unmarked) [Agnique AMD 3 L, N,N-dimethyllactamide], the Inhibiting period in data set [1] (additive 1000 ppm) worked out at 405 min.

Turning to `COC(=O)c1ccccc1` [Methyl benzoate], in data set [2], the δD is reported as 18.9 MPa^1/2, the δP is 8.2 MPa^1/2 and the δH was 4.7 MPa^1/2. In data set [1] (additive 1000 ppm), the Inhibiting period stood at 350 min. Moreover, in data set [3], the “εr at 20° C.” value is on record as 6.7. In addition, the Ra in data set [4] is 4.9.

`COC(=O)c1ccccc1C(=O)OC` [Dimethyl phthalate] displayed an Inhibiting period in data set [1] (additive 1000 ppm) of 348 min.

In the case of `CCCCC(C)=O` [Methyl butyl ketone], in data set [2], the δD is given as 15.3 MPa^1/2, the δP is recorded as 6.1 MPa^1/2 and the δH is given as 4.1 MPa^1/2. Moreover, the Inhibiting period in data set [1] (additive 1000 ppm) was determined as 309 min. Also, the “εr at 20° C.” value in data set [3] is given as 14.5. For the same compound, the Ra in data set [4] is on record as 6.3.

Compound `CCCCC(CC)COC(=O)C(C)O` (centres unmarked) [Agnique AE 3 2 EH, 2-ethylhexyl lactate] registered an Inhibiting period in data set [1] (additive 1000 ppm) of 279 min.

Turning to `COCC(C)OCC(C)OC` (centres unmarked) [Dipropylene glycol dimethyl ether], in data set [2], the δD is listed as 15.5 MPa^1/2, the δP is on record as 4.6 MPa^1/2 and the δH is listed as 6.1 MPa^1/2. Also, the Inhibiting period in data set [1] (additive 1000 ppm) amounted to 339 min. In data set [3], the “εr at 20° C.” value is on record as 10.4. Moreover, in data set [4], the Ra is reported as 7.1.

For the compound `CC#N` [Acetonitrile], in data set [2], the δD is recorded as 15.3 MPa^1/2, the δP is recorded as 18.0 MPa^1/2 and the δH is reported as 6.1 MPa^1/2. For the same compound, in data set [1] (additive 1000 ppm), the Inhibiting period is 335 min. Moreover, the “εr at 20° C.” value in data set [3] was 36.8. The Ra in data set [4] is on record as 7.8.

As to `O` [DI water, deionized water], in data set [1] (additive 1000 ppm), the Inhibiting period is given as 327 min.

In the case of `CCCCC(CC)COC(=O)CCCCC(=O)OCC(CC)CCCC` (centres unmarked) [Di(2-ethylhexyl) adipate], in data set [2], the δD is reported as 16.2 MPa^1/2, the δP is on record as 4.6 MPa^1/2 and the δH is on record as 7.7 MPa^1/2. Further, in data set [1] (additive 1000 ppm), the Inhibiting period is reported as 350 min. The “εr at 20° C.” value in data set [3] is given as 2.1. In addition, in data set [4], the Ra is reported as 6.8.

With `c1ccc2c(c1)Nc1ccccc1S2` [phenothiazine], in data set [5], the “phase behavior (compatibility of ionic liquid and solvent)” value is “an incompatibility between the ionic liquid and the solvent (formation of two liquid phases) is eliminated by the addition of phenothiazine above a particular concentration”; the “solubility of phenothiazine in the solvent on addition of ionic liquid” value is given as “even small additions of the ionic liquid increase the solubility of phenothiazine in the solvent, with a linear increase up to the solubility in the pure ionic liquid”. Also, in data set [6], the “phase behavior (compatibility of ionic liquid and solvent)” value was “an incompatibility between the ionic liquid and the solvent (formation of two liquid phases) is eliminated by the addition of phenothiazine above a particular concentration”; the “solubility of phenothiazine in the solvent on addition of ionic liquid” value is reported as “even small additions of the ionic liquid increase the solubility of phenothiazine in the solvent, with a linear increase or a slight synergistic effect up to solubility in the pure ionic liquid”.

Turning to `CCCCCCCCCC(=O)N(C)C` [C10-fatty acid dimethylamide], in data set [2], the δD is given as 16.6 MPa^1/2, the δP is listed as 6.7 MPa^1/2 and the δH is on record as 5.7 MPa^1/2. In data set [1] (additive 1000 ppm), this compound yielded an Inhibiting period of 335 min. Also, the “εr at 20° C.” value in data set [3] is recorded as 13.8.

Take `O=C1CCCCC1` [Cyclohexanone]: in data set [2], the δD is recorded as 17.8 MPa^1/2, the δP is listed as 8.4 MPa^1/2 and the δH is on record as 5.1 MPa^1/2. The Inhibiting period in data set [1] (additive 1000 ppm) is on record as 75 min. Also, the “εr at 20° C.” value in data set [3] is on record as 16.1. Besides, in data set [4], the Ra is on record as 3.2.

Compound `OCCO` [Ethylene glycol] gave an Inhibiting period in data set [1] (additive 1000 ppm) of 365 min. Also, the “relative solubility of phenothiazine in a mixture of ionic liquid and solvent, based on the solubility in the pure solvent” value in data set [7] is listed as “only a small solubility-increasing effect or solubility-reducing effect”.

As for `CN1CCCC1=O` [N-Methylpyrrolidone], in data set [2], the δD is 16.8 MPa^1/2, the δP was 2.8 MPa^1/2 and the δH was 6.7 MPa^1/2. Moreover, in data set [1] (additive 1000 ppm), the Inhibiting period worked out at 343 min. Further, the “εr at 20° C.” value in data set [3] is listed as 32.8. Also, in data set [4], the Ra is on record as 8.2.

Turning to `NCCN` [Ethylenediamine], the Inhibiting period in data set [1] (additive 1000 ppm) came out at 341 min.

Turning to `CN(C)CCCN` [3-(Dimethylamino)-1-propylamine, 3-(dimethylamino)-1-propylamine], the Inhibiting period in data set [1] (additive 1000 ppm) worked out at 407 min.

“N-ethyl-N′-methylimidazolium isononanoate [EMIM isononanoate]” showed an Inhibiting period in data set [1] (additive 1000 ppm) of 379 min.

In data set [1] (additive 1000 ppm), `O=S1(=O)CCCC1` [Sulfolane] registered an Inhibiting period of 330 min. For the same compound, in data set [3], the “εr at 20° C.” value was 42.7.

As to `N#Cc1ccccc1` [Benzonitrile], in data set [2], the δD is 18.8 MPa^1/2, the δP is 12.0 MPa^1/2 and the δH is on record as 3.3 MPa^1/2. The Inhibiting period in data set [1] (additive 1000 ppm) worked out at 334 min. The “εr at 20° C.” value in data set [3] is given as 25.7. The Ra in data set [4] was 4.6.

For the compound `C[S+](C)[O-]` [DMSO], in data set [2], the δD is listed as 18.4 MPa^1/2, the δP was 16.4 MPa^1/2 and the δH is given as 10.2 MPa^1/2. In addition, the Inhibiting period in data set [1] (additive 1000 ppm) was 317 min. The “εr at 20° C.” value in data set [3] is 47.3. Moreover, the Ra in data set [4] is reported as 7.4.

The compound `C1CCC2CCCCC2C1` (centres unmarked) [Decahydronaphthalene] yielded an Inhibiting period in data set [1] (additive 1000 ppm) of 347 min.

`O=C1CCCO1` [γ-Butyrolactone]: in data set [2], the δD is 18.0 MPa^1/2, the δP is listed as 16.6 MPa^1/2 and the δH is 7.4 MPa^1/2. The same compound gave an Inhibiting period in data set [1] (additive 1000 ppm) of 361 min. Further, the “εr at 20° C.” value in data set [3] is recorded as 41.4. Further, the Ra in data set [4] was 6.1.

For `CCCCOC(=O)CCCCC(=O)OCCCC` [Dibutyl adipate (Cetiol B), Dibutyl adipate], in data set [2], the δD is 16.4 MPa^1/2, the δP is given as 4.3 MPa^1/2 and the δH was 5.9 MPa^1/2. Moreover, in data set [1] (additive 1000 ppm), the Inhibiting period came out at 347 min. The “εr at 20° C.” value in data set [3] is reported as 3.0. The Ra in data set [4] is recorded as 6.8.

Turning to `CC(=O)O` [Acetic acid], in data set [1] (additive 1000 ppm), the Inhibiting period is 347 min.
